Test results as given in article PMC12720774, “Detergents alter the stability and lipid binding properties of the CD1d immunoreceptor” (Protein Science : A Publication of the Protein Society, 2025).
Several values for one entry are separate records, joined by “and”; a condition that tells them apart may be missing. Equal entries are not always repeated. Entries after “also recorded” stand apart in the source; their conditions may differ. Structures can show the parent of a compound that is named as a salt. Where two headings read alike, the source gives them in different places.

Experiments:
[1] = molecular target: T1, recombinant human CD1d ectodomain/β2m complex (hCD1d) (Homo sapiens, UniProt P15813); test: Intrinsic tryptophan fluorescence (ITF) binding assay
T1 construct: TEV protease cleavage site ENLYFQS (C); BirA biotinylation site (C); His7 (C); made in house; host or cells: TurboCHO cells (GenScript)
Procedure: (§1) For ITF assays, the concentration of hCD1d was kept constant, and intrinsic Trp fluorescence (excitation at 285 nm, emission at 335 nm) was measured as a function of increasing detergent concentration (Fossum et al., [2023]) (Figure S2). The change in relative fluorescence intensity (F − F 0/F 0) provides an indication of binding. […] This was due to limited detergent solubility and decreased hCD1d stability in the presence of a large excess of detergent (see below). […] SDS was the exception, for which Trp fluorescence of hCD1d decreased with added detergent. This could indicate a unique conformational change or destabilization of the protein.
(§2) ITF spectra were recorded from 300 to 500 nm using a Horiba FL3‐21 Fluorometer with the excitation wavelength of 285 nm and excitation/emission slits of 6.2 nm. Fluorescence spectra of 50 to 100 nM hCD1d were acquired in the absence and presence of detergents in 1X PBS pH 7.4 at 25°C. Prior to data acquisition, hCD1d and detergent or lipid samples were incubated at 37°C overnight (~12 h) to simulate in vitro and in vivo loading conditions. […] For 18:1 LPC experiments, fluorescence spectra of 100 nM hCD1d were acquired in the absence and presence of 18:1 LPC in 1X PBS pH 7.4 at 25°C. […] For all ITF experiments, the change in fluorescence signal (F − F 0/F 0) was determined at 335 nm. Three replicates were performed, and data are presented as the mean ± standard deviation (n = 3). K D values were fitted with non‐linear regression in GraphPad Prism v10.1.

[2] = molecular target: T2, recombinant human CD1d ectodomain/β2m complex (hCD1d) (Homo sapiens, UniProt P15813+P61769); test: as above
T2 construct: TEV protease cleavage site ENLYFQS (C); BirA biotinylation site (C); His7 (C); made in house; host or cells: TurboCHO cells (GenScript)
Procedure: as §1, §2

AF647‐labeled hCD1d [3] = molecular target: T3, AF647‐labeled hCD1d (Homo sapiens, UniProt P15813); test: Microscale thermophoresis (MST) binding assay
T3 construct: TEV protease cleavage site ENLYFQS (C); BirA biotinylation site (C); His7 (C); made in house; host or cells: TurboCHO cells (GenScript)
Summary of the method: (§3)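 hCD1d was NHS-labeled with AF647 (~75% labeling) and held at 100 nM against rising detergent or 18:1 LPC in PBS pH 7.4. Samples were preincubated at 37°C overnight (~12 h) and read at 25°C with 20 s IR-on time. Data are mean ± SD, n = 3.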

AF647‐labeled hCD1d [4] = molecular target: T4, AF647‐labeled hCD1d (Homo sapiens, UniProt P15813+P61769); test: Microscale thermophoresis (MST) binding assay
T4 construct: TEV protease cleavage site ENLYFQS (C); BirA biotinylation site (C); His7 (C); made in house; host or cells: TurboCHO cells (GenScript)
Summary of the method: as §3

[5] = approximate, ref Anatrace catalogue, cited from earlier work
[6] = 0.001 M detergent, 100 nM AF647‐hCD1d

T2 sequence (P61769+P15813 fused): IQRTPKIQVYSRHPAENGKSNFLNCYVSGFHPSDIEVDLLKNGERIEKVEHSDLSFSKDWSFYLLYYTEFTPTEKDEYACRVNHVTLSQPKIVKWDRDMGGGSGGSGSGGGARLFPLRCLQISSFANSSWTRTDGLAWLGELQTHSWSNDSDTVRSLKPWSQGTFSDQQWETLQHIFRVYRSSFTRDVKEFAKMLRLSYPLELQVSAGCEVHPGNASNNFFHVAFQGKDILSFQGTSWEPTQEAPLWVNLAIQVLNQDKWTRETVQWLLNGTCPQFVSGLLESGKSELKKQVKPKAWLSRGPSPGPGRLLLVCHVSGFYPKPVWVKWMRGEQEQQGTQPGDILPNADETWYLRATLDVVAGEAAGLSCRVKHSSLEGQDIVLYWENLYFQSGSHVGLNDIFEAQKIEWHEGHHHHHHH
T4 sequence (P61769+P15813 fused): as above
T3 sequence (P15813 whole entry, looked up): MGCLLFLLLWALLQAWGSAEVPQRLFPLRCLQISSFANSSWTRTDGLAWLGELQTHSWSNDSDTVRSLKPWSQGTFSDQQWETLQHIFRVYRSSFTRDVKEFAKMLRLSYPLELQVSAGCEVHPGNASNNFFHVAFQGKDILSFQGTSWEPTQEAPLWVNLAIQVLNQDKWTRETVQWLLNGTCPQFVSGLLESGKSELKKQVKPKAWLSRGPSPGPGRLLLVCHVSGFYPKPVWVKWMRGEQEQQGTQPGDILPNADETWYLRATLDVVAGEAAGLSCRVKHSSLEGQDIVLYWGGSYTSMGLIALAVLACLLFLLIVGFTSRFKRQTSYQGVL
T1 sequence (P15813 whole entry, looked up, the tested form may be a part, one chain of several): as the sequence (P15813 whole entry, looked up) above

CCCCCCCCO[C@@H]1O[C@H](CO)[C@@H](O)[C@H](O)[C@H]1O [ODG, n‐octyl‐β‐D‐glucopyranoside]
Kd ([1]; detergent with 100 nM hCD1d, 25°C, 1X PBS pH 7.4, apparent, read-out: K D (ITF)): > 10000 µM
binding to hCD1d by ITF (in words) [2]: No significant binding; also recorded: minimal concentration‐dependent fluorescence changes
F-F0/F0 (rep 1-3) ([2]; Concentration (M) 0.000977): 0
Kd (AF647‐labeled hCD1d [3]; Figure 5B, detergent binding to hCD1d, read-out: MST - Kd (uM) average): 6580 µM
Kd (AF647‐labeled hCD1d [3]; detergent with 100 nM AF647‐labeled hCD1d, 25°C, apparent, read-out: K D (MST)): 6580 ± 186 µM
Fnorm (rep 1-3) (AF647‐labeled hCD1d [4]; 9.76563e-7 M detergent): 842.328 ‰ and 845.864 ‰ and 848.262 ‰
Fnorm (rep 1-3) (AF647‐labeled hCD1d [4]; 1.95313e-6 M detergent): 843.26 ‰ and 846.856 ‰ and 850.006 ‰
Fnorm (rep 1-3) (AF647‐labeled hCD1d [4]; 3.90625e-6 M detergent): 843.026 ‰ and 843.822 ‰ and 848.605 ‰
Fnorm (rep 1-3) (AF647‐labeled hCD1d [4]; 7.8125e-6 M detergent): 843.431 ‰ and 845.217 ‰ and 850.155 ‰
Fnorm (rep 1-3) (AF647‐labeled hCD1d [4]; 1.5625e-5 M detergent): 843.398 ‰ and 846.496 ‰ and 848.167 ‰
Fnorm (rep 1-3) (AF647‐labeled hCD1d [4]; 3.125e-5 M detergent): 843.251 ‰ and 846.684 ‰ and 848.174 ‰
Fnorm (rep 1-3) (AF647‐labeled hCD1d [4]; 6.25e-5 M detergent): 844.533 ‰ and 847.002 ‰ and 847.612 ‰
Fnorm (rep 1-3) (AF647‐labeled hCD1d [4]; 0.000125 M detergent): 844.648 ‰ and 847.89 ‰ and 849.866 ‰
Fnorm (rep 1-3) (AF647‐labeled hCD1d [4]; 0.00025 M detergent): 846.571 ‰ and 844.204 ‰ and 849.145 ‰
Fnorm (rep 1-3) (AF647‐labeled hCD1d [4]; 0.0005 M detergent): 846.14 ‰ and 848.026 ‰ and 848.57 ‰
Fnorm (rep 1-3) (AF647‐labeled hCD1d [4]; [6]): 845.727 ‰ and 847.773 ‰ and 849.553 ‰
Fnorm (rep 1-3) (AF647‐labeled hCD1d [4]; 0.002 M detergent): 847.311 ‰ and 851.671 ‰ and 850.904 ‰
Fnorm (rep 1-3) (AF647‐labeled hCD1d [4]; 0.004 M detergent): 852.082 ‰ and 853.968 ‰ and 856.97 ‰
Fnorm (rep 1-3) (AF647‐labeled hCD1d [4]; 0.008 M detergent): 864.475 ‰ and 866.313 ‰ and 870.655 ‰
Fnorm (rep 1-3) (AF647‐labeled hCD1d [4]; 0.032 M detergent): 877.078 ‰ and 878.262 ‰ and 882.232 ‰
CMC [5]: 18,000 μM
CMC ([5]; weight/volume): 0.53%

CCCCCCCCCCCCOS(=O)(=O)O [SDS, sodium dodecyl sulfate]
Kd ([1]; ITF - Kd (uM) average, Figure 5A, detergent binding to hCD1d): 35.5 µM
Kd ([1]; K D (ITF), detergent with 100 nM hCD1d, 25°C, 1X PBS pH 7.4, apparent): 35.5 ± 22.6 µM
F-F0/F0 (rep 1-3) ([2]; 3.0518e-8 M detergent): 0
Kd (AF647‐labeled hCD1d [3]; K D (MST), detergent with 100 nM AF647‐labeled hCD1d, 25°C, apparent): > 10000 µM
Kd (AF647‐labeled hCD1d [3]; K D, detergent class summary, approximate, collectively from ITF and MST): 10 to 500 µM
binding to hCD1d by MST (in words) (AF647‐labeled hCD1d [4]): observable binding
Fnorm (rep 1-3) (AF647‐labeled hCD1d [4]; 3.05176e-8 M detergent): 794.561 ‰ and 796.538 ‰ and 787.226 ‰
Fnorm (rep 1-3) (AF647‐labeled hCD1d [4]; 6.10352e-8 M detergent): 793.573 ‰ and 796.65 ‰ and 788.808 ‰
Fnorm (rep 1-3) (AF647‐labeled hCD1d [4]; 1.2207e-7 M detergent): 795.629 ‰ and 795.536 ‰ and 789.052 ‰
Fnorm (rep 1-3) (AF647‐labeled hCD1d [4]; 2.44141e-7 M detergent): 792.166 ‰ and 793.398 ‰ and 784.145 ‰
Fnorm (rep 1-3) (AF647‐labeled hCD1d [4]; 4.88281e-7 M detergent): 790.042 ‰ and 793.566 ‰ and 789.803 ‰
Fnorm (rep 1-3) (AF647‐labeled hCD1d [4]; 9.76563e-7 M detergent): 792.907 ‰ and 794.378 ‰ and 788.273 ‰
Fnorm (rep 1-3) (AF647‐labeled hCD1d [4]; 1.95313e-6 M detergent): 792.77 ‰ and 792.711 ‰ and 788.545 ‰
Fnorm (rep 1-3) (AF647‐labeled hCD1d [4]; 3.90625e-6 M detergent): 794.169 ‰ and 793.199 ‰ and 789.062 ‰
Fnorm (rep 1-3) (AF647‐labeled hCD1d [4]; 7.8125e-6 M detergent): 793.805 ‰ and 798.209 ‰ and 788.93 ‰
Fnorm (rep 1-3) (AF647‐labeled hCD1d [4]; 1.5625e-5 M detergent): 795.098 ‰ and 796.977 ‰ and 790.788 ‰
Fnorm (rep 1-3) (AF647‐labeled hCD1d [4]; 3.125e-5 M detergent): 796.19 ‰ and 799.152 ‰ and 792.387 ‰
Fnorm (rep 1-3) (AF647‐labeled hCD1d [4]; 6.25e-5 M detergent): 800.38 ‰ and 802.553 ‰ and 795.217 ‰
Fnorm (rep 1-3) (AF647‐labeled hCD1d [4]; 0.000125 M detergent): 801.158 ‰ and 800.337 ‰ and 800.706 ‰
Fnorm (rep 1-3) (AF647‐labeled hCD1d [4]; 0.00025 M detergent): 801.719 ‰ and 804.302 ‰ and 803.561 ‰
Fnorm (rep 1-3) (AF647‐labeled hCD1d [4]; 0.0005 M detergent): 816.347 ‰ and 820.909 ‰ and 814.082 ‰
Fnorm (rep 1-3) (AF647‐labeled hCD1d [4]; [6]): 825.168 ‰ and 825.899 ‰ and 822.956 ‰
CMC [5]: 1990 µM
CMC ([5]; weight/volume): 0.057%
